Test results reported in patent US20040127575A1, “Method for counteracting a pathologic change in the beta-adrenergic pathway” (priority 2002, published 2004).
Values joined by “and” are separate entries in the source; they are usually repeats but may differ in a detail not shown here. Identical values can stand only once. “Also recorded” adds a separate entry of the source.

Key:
[1] = tested on: rat neonatal cardiomyocytes; assay: cyclic AMP accumulation in rat neonatal cardiomyocytes (EIA); conditions: for attenuation of isoproterenol-stimulated cAMP accumulation: 1 μM isoproterenol, 200 nM antagonist; for β2AR response/AC activity (procaterol, forskolin): FIG. 11
Procedure: Ventricular cardiomyocytes were isolated from neonatal rat hearts as described before and seeded to fibronectin coated plates in DMEM21 and Coon's F12 with 10% FBS. […] Myocytes were used within 24 to 72 hr after isolation.
For pretreatment, cells were washed once in serum-free media (SFM) supplemented with 0.1% bovine serum albumin (BSA) and incubated with TGF-β1 in the presence or absence of inhibitors in the same media. Control cells were treated with the appropriate vehicles.
HBSMC or rat neonatal cardiomyocytes were subcultured in 96-well or 24-well plates for 24 hr to 48 hr, then treated with TGFβ1 (1-2ng/ml), Activin A (10-50 ng/ml) and other drugs in 1% serum-containing or serum-free media. After 24 hr incubation, phosphodiesterase inhibitor, IBMX (200 uM) was added to fresh media for 10-15 min before exposure to either 10 uM procaterol, 1 uM isoproterenol, or 10-50 uM forskolin for 10 min to stimulate cAMP production. The stimulation medium was removed and cells were lysed in 0.1M HCl. cAMP levels were measured using Direct cAMP EIA kit from Assay Designs, Inc. following manufacture's instruction.
Subsequent to treatment with TGF-β1 (1-2 ng/ml), cardiomyocytes (˜1×10^5 cells/well in 24-well plates) were incubated with phosphodiesterase inhibitor, IBMX (200 μM) for 30 min in SFM. Cells were then exposed to either procaterol (10 μM), forskolin (10-50 μM), or isoproterenol (Iso, 1 μM) for 10 min to allow for accumulation of cAMP. […] The incubations were terminated by removal of the medium. Cells in each well were lysed in 150 μl of 0.1 M HCl at room temperature (RT) for 30 min. Intracellular cAMP contents were measured using the Direct cAMP EIA kit following manufacture's instruction, and the cAMP levels were calculated in pmol/ml.

TGF-β mediated fibrosis = TGF-β mediated fibrosis in in vitro and in vivo models; conditions: several in vitro and in vivo models
Smad2/3 and Smad4 = assay: immunofluorescence staining of Smad nuclear translocation in cardiomyocytes
Procedure: The nuclear translocation of Smad proteins in response to TGF-β1 was determined by immunofluorescence staining with monoclonal anti-Smad2/3 antibody (BD Transduction Labarotories) and anti-Smad4 antibody (sc-7966) (Santa Cruz Biotechnology). Briefly, myocytes cultured on Lab-Tek chamber slides (Nalge Nunc International, Naperville, Ill.) coated with fibronectin and gelatin were fixed with 4% paraformaldehyde in PBS for 5 min, then penetrated with 0.1% saponin/1% normal goat serum (NGS) in PBS for 15 min. After blocking nonspecific binding with 5% NGS/0.05% saponin in PBS for 15 min, the slides were incubated with primary antibody in 1% NGS in PBS at 4° C. overnight. After another washing and blocking, slides were incubated with a biotinylated anti-mouse antibody for 30 min, followed by fluorescein isothiocyanate (FITC)-conjugated-avidin (Vector, Burlingame, Calif.) for 30 min. Slides were dried and mounted in Vectashield (Vector). Samples were analyzed by fluorescence microscopy.

Smad2, Smad3 = assay: Western blot of phospho-Smad2 and Smad3 in hBSMC; format: cell-based, human
Procedure: (§1) After incubation with TGFβ1 and other drugs, cells were washed once with 1×PBS and lysed in 0.2 ml/plate cold RIPA buffer (phosphate buffered saline, pH 7.4, 1% NP-40, 0.5% sodium deoxycholate, 0.1% sodium dodecylsulfate, 1 mM sodium orthovanadate, 1 mM NaF, 1 mM β-glycerolphosphate, 1 uM okadaic acid, 10 ng/ml aprotinin, 10 ng/ml leupeptin, 1 mM phenymethylsulfonyl fluoride). Samples were clarified by centrifugation (4° C., 10 min, 15,000×g), and protein concentration was determined by BCA method (PIRCE). Lysates with equal amounts of total cell protein (15-20 ug) were separated on 10% SDS-NuPAGE (Invitrogen) and then transferred to nitrocellulose membrane. The membrane was blocked in 3% nonfat dry milk/TBST (10 mM Tris-HCl pH 7.5, 150 mM NaCl, 0.1% Tween 20) for 1 hr, and probed with anti-Smad2/3 mouse monoclonal antibody [Transduction Laboratories (S66220); 1:500 dilution in 3% milk/TBST], or anti-phospho-Smad2 (Ser465/467) rabbit antiserum [Cell Signaling (3101S); 1:500 dilution in 3% BSA/TBST] at 4° C. overnight. Donkey anti-mouse HRP [Santa Cruz (SC-2314); 1:2000 dilution] or donkey anti-rabbit HRP [Santa Cruz (SC-23130; 1:2000 dilution] were used as secondary antibody. Immunoreactivity was detected with chemiluminescence reagent (Santa Cruz) and visualized by exposing to x-ray film (Kodak).

[2] = tested on: panel of related protein kinases; assay: panel of related protein kinases; conditions: relative to TGFβ-RI kinase
[3] = tested on: human bronchial smooth muscle cells (hBSMC); assay: cyclic AMP accumulation in hBSMC (EIA); format: cell-based
Procedure: Human bronchial smooth muscle cells (hBSMC) were purchased from Clonetics (BioWhittaker, Inc., Walkersville, Md.), and maintained in SmGM-2 containing 5% fetal bovine serum (Clonetics) at 37° C./5% CO2. All experiments were performed on cells at passages from 6 to 8. For pretreatment, cells were incubated in 1% serum-containing media or serum-free media in the presence or absence of TGFβ1, Activin A and other drugs. Control cells were treated with the appropriate vehicles.

Smad2 = assay: Western blot of Smad2 phosphorylation in cardiomyocytes
Procedure: as §1
The binding of primary antibodies was followed by incubation for 1 hour at RT with the secondary horseradish peroxidase (HRP) conjugated goat anti-mouse or goat anti-rabbit antibody (Santa Cruz Biotechnology). Immunoreactivity was detected with chemiluminescence reagents and visualized by exposing to x-ray film (Kodak).

TGFβ-RII receptor = TGFβ-RII receptor (Homo sapiens, UniProt P37173); assay: specificity against TGFβ-RII receptor; conditions: relative to TGFβ-RI kinase
Sequence of TGFβ-RII receptor (P37173 23-567): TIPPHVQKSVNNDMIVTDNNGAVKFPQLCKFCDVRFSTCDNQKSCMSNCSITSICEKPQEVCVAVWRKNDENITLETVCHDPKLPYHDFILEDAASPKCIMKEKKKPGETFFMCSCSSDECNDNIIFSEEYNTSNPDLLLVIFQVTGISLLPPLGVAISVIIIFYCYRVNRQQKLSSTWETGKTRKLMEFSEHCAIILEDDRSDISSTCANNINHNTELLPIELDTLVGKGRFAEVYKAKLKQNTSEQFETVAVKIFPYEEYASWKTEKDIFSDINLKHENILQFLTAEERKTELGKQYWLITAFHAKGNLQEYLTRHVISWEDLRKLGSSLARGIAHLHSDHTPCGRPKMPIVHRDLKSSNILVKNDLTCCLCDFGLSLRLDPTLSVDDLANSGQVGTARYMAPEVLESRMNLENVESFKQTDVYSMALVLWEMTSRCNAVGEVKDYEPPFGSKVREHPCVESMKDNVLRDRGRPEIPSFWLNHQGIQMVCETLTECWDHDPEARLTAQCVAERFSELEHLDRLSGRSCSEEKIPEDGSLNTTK

[4] = tested on: rat neonatal cardiomyocytes; assay: real-time RT-PCR of mRNA levels in cardiomyocytes; conditions: for β2-AR mRNA levels in cardiomyocytes: 24 hr pretreatment for TGF-β1
Description: Total RNA was extracted from cells using Qiagen's RNAeasy kit (Valencia, Calif.), and analyzed by quantitative real time RT-PCR [Gibson UEM, Heid C A and Williams P M. Genome Res. 6, 995-1001, 1996] using an ABI Prism™ 7700 Sequence Detection System (PE Applied Biosystems, Foster City, Calif.). This system is based on the ability of the 5′nuclease activity of Taq polymerase to cleave a nonextendable dual-labeled fluorogenic hybridization probe during the extension phase of PCR. The probe is labeled with reporter fluorescent dye at the 5′ end and a quencher fluorescent dye (6-carboxy-tetramethyl-rhodamine) at the 3′ end. When the probe is intact, reporter emission is quenched by the physical proximity of the reporter and quencher fluorescent dyes. However, during the extension phase of PCR, the nucleolytic activity of the DNA polymerase cleaves the hybridization probe and releases the reporter dye from the probe with a concomitant increase in reporter fluorescence.
Sequence specific primers and probes were designed using Primer Express software (PE Applied Biosystems, Foster City, Calif.). […] Primers were used at a concentration of 200 nM and probes at 100 nM in each reaction. Multiscribe reverse transcriptase and AmpliTaq Gold polymerase (PE Applied Biosystems, Foster City Calif.) were used in all RT-PCR reactions and PCR reactions. RT-PCR parameters were as follows: 48° C. for 30 min (reverse transcription), 95° C. for 10 min (AmpliTaq Gold activation) and 40 cycles of 95° C. for 15 sec, 60° C. for 1 min. Relative quantitation of β1-AR, β2-AR, and 18S mRNA were calculated using the comparative threshold cycle number for each sample fitted to a five point standard curve (ABI Prism 7700 User Bulletin #2, PE Applied Biosystems, Foster City Calif.). Expression levels were normalized to 18S rRNA.

β2AR mRNA = assay: real-time quantitative PCR of β2AR mRNA in hBSMC; format: cell-based, human; conditions: TGFβ1 exposure
Description: Expression levels were normalized to 18S rRNA.

[5] = tested on: β2-adrenergic receptors on cell surface; assay: radioligand binding with [3H]CGP-12177 on intact hBSMC; format: cell-based, human; conditions: TGFβ1 exposure
Procedure: The number of β2-adrenergic receptors on cell surface was determined by radioligand binding using hydrophilic, membrane-impermeable β-adrenergic antagonist [^3H]CGP-12177. Intact hBSMCs in 10 cm dish were preincubated with 5 nM [^3H]-CGP 12177 in the presence or absence of 20 uM propranolol (to define the amount of nonspecific binding) in SmBM for 1 hour at 37° C. with very gentle shaking. Cells were washed 3 times with ice-cold 1×PBS containing 0.1% Tween-20 (binding buffer) and 3 more times with ice-cold 1×PBS. 400 μl of RIPA buffer containing protease inhibitors was added to the plates and cells were scraped off the plates. Cell lysates were collected and protein concentrations were determined by BCA method (PIERCE). The radioligand bound to the whole cell was quantified by liquid scintillation counter and normalized to the protein concentration.

[6] = tested on: β2-AR receptor binding sites; assay: radioligand binding in cardiomyocytes; format: cell-based, rat
Procedure: The radioligand binding assay was performed as described in Example 1. To define the nonspecific binding to β2-AR, 50 nM CGP-20712A were used.
Membranes were then prepared and binding of 100 pm [^125]-CYP was measured for 2 hours at 23° C. using 8 μg membrane protein, and expressed as fmol/mg protein. Binding in the presence of 100 nM CGP-20712A was defined as binding to β2-AR, while binding in the presence of 100 μM propranolol was defined as non-specific binding. Subtraction of β2-AR binding from total binding was defined as β1-AR binding. The results are shown in FIG. 25 (p<0.05 vs. vehicle).

Molecule: N#CC(=C(/N)Sc1ccccc1N)/C(C#N)=C(\N)Sc1ccccc1N [U0126, reference compound]
- β2-AR mediated (procaterol stimulated) cAMP accumulation after 24 hr TGF-β1 exposure, compared to vehicle ([1]; Compound No. 79 200 nM, p38 inhibitor 0.5 μM, U-0126 5 μM, JNK inhibitor I 5 μM, TGF-β1 1 ng/ml): No significant effects; also recorded: did not affect

Molecule: Cc1ccc(OCC(O)C(C)NC(C)C)c2c1CCC2 (centres unmarked) [ICI 118, 551, reference compound]
- attenuation of isoproterenol-stimulated cAMP accumulation [1]: ~25%

Molecule: Fc1ccc(Cl)cc1-c1nc(Nc2ccncc2)c2nccnc2n1 [Compound No. 79]
- effect on TGF-β mediated fibrosis (TGF-β mediated fibrosis): able to block
- effect on TGF-β1 induced Smad2/3 and Smad4 translocation into the nucleus (Smad2/3 and Smad4; 400 nM): completely abolished
- effect on TGFβ1-induced Smad2 phosphorylation and Smad3 down-regulation in hBSMC (Smad2, Smad3; FIG. 13): blocks
- effect on TGFβ1-induced loss of β2AR response and AC activity ([1]; Example 1, FIG. 9): prevents
- basal cAMP levels in cardiomyocytes ([1]; higher concentration): increased
- isoproterenol or forskolin induced cAMP accumulation in TGF-β1 treated cardiomyocytes ([1]; pre-incubation, Compound No. 79 200 nM): preserved
- specificity over members of a panel of related protein kinases [2]: at least 20 fold
- effect on TGFβ1-induced loss of adrenergic responsiveness in hBSMC ([3]; FIG. 4): prevents
- effect on TGF-β1 induced Smad2 phosphorylation/activation (Smad2; pre-incubation, Compound No. 79 at 400 nM, 1 hr and 24 hr): significantly blocked
- basal phosphorylation of Smad2 (Smad2; resting cardiomyocytes): blocked
- specificity against TGFβ-RII receptor (TGFβ-RII receptor): > 100 fold
- effect on TGF-β1 induced down-regulation of β2-AR mRNA ([4]; 5 ng/ml TGF-β1, 24 hr, dose-dependent): reversed
- effect on activin-induced down-regulation of β2AR mRNA ([4]; FIG. 10): prevented
- effect on decreased AC5 and AC6 mRNA levels in TGF-β1 treated cardiomyocytes ([4]; dose-dependent): inhibited
- effect on TGF-β1 induced down-regulation of Smad3 mRNA ([4]; dose-dependent, within 24 hr): blocked
- mRNA levels of β2-AR in TGFβ1 treated cells ([4]; high doses (400-1000 nM)): higher than that in control cells

Molecule: TGF-β1: Human recombinant transforming growth factor-β1 from R&D System
- β2AR mRNA in hBSMC (β2AR mRNA): significantly reduces
- βAR binding sites on hBSMC [5]: reduces
- Smad2/3 and Smad4 fluorescence staining in the nucleus (Smad2/3 and Smad4; stimulation for 1 hr): dramatically increased
- Smad2 phosphorylation in hBSMC (Smad2, Smad3): induces
- Smad3 expression in hBSMC (Smad2, Smad3): down-regulated
- reduction in procaterol-stimulated cAMP accumulation ([1]; TGF-β1 1 ng/ml pre-treatment 24 hr, 10 μM procaterol, maximal effect): 59±5.2% and ~60%
- cAMP accumulation stimulated by forskolin ([1]; TGF-β1 exposure, 25 μM forskolin): decreased
- decrease of cAMP accumulation when β2-ARs selectively stimulated by isoproterenol in the presence of CGP-20712A ([1]; TGF-β1 pretreatment 24 hr): ~65%
- reduction in β1-AR mediated cAMP accumulation (isoproterenol in the presence of ICI 118, 551) ([1]; TGF-β1 pretreatment 24 hr): 16.5±3.1%
- time course of loss of β2AR response (procaterol-induced cAMP) in hBSMC ([3]; more profound at 24 hr or later): after 12 hr
- time course of effect on AC activity (forskolin-induced cAMP) in hBSMC ([3]; to a lesser extent): only observed 24 hr later
- time of peak serine phosphorylation of Smad2 (Smad2; maintained for 24 hr): 1 h
- Smad7 mRNA in cardiomyocytes [4]: up-regulated
- β1-AR mRNA levels in cardiomyocytes [4]: did not significantly alter
- β2-AR mRNA levels in cardiomyocytes [4]: decreased β2-AR mRNA levels dramatically
- earliest time of suppression of β2-AR mRNA ([4]; after treatment): 1 h
- expression of βARK1, Gsα, Giα-1, Giα-3 ([4]; message or protein levels): did not alter
- mRNA levels of AC5 and AC6 ([4]; time-dependent): significant reduction
- Smad3 mRNA in cardiomyocytes ([4]; within 24 hr): down-regulated
- β2-AR receptor binding sites in cardiomyocytes [6]: trend to decrease

Molecule: Cn1cc(C(F)(F)F)nc1-c1ccc(OCC(O)CNCCOc2ccc(O)c(C(N)=O)c2)cc1 (centres unmarked) [CGP-20712A, reference compound]
- attenuation of isoproterenol-stimulated cAMP accumulation [1]: ~75%

Molecule: CCC(NC(C)C)C(O)c1ccc(O)c2[nH]c(=O)ccc12 (centres unmarked) [procaterol, reference compound]
- cAMP accumulation by agonist ([1]; 10 μM procaterol): substantially increased

B1: activin A: Activin A obtained from R&D System (protein, UniProt P08476 311-426, looked up)
Inhibin beta A chain: GLECDGKVNICCKKQFFVSFKDIGWNDWIIAPSGYHANYCEGECPSHIAGTSGSSLSFHSTVINHYRMRGHSPFANLKSCCVPTKLRPMSMLYYDDGQNIIKKDIQNMIVEECGCS
- β2AR response/AC activity (procaterol, forskolin) [1]: induces loss
- βAR response and AC activity in hBSMC ([3]; higher concentration): causes loss of βAR response as well as reduced AC activity
- β2-AR mRNA levels in cardiomyocytes [4]: down-regulated

B2: IL-1β: IL-1β, cytokine applied to rat cardiomyocytes (protein, UniProt Q63264 117-268, looked up)
Interleukin-1 beta: VPIRQLHCRLRDEQQKCLVLSDPCELKALHLNGQNISQQVVFSMSFVQGETSNDKIPVALGLKGLNLYLSCVMKDGTPTLQLESVDPKQYPKKKMEKRFVFNKIEVKTKVEFESAQFPNWYISTSQAEHRPVFLGNSNGRDIVDFTMEPVSS
- β2AR response/AC activity (procaterol, forskolin) [1]: induces loss
